In US10239957B2, “Peptide containing conjugates for dual molecular delivery of oligonucleotides” (Merck Sharp & Dohme Corp., priority 2013, dated 2019):
Where no end group is shown, it is not given here. [ ]: non-standard residue; d: D form. TGN = not defined here

Tested on: CTNNB1
Assay: In vitro DMD assay: mRNA silencing enhancement by peptide conjugates after siRNA-IV treatment
Format: cell-based
Conditions: primary mouse hepatocytes, siRNA-IV 125 nM baseline
Method: Cryopreserved primary Mouse hepatocytes (Bioreclamation, LLC) were placed into Collagen Type I coated 96-well plates at 25,000 cells per well in serum-containing InVitroGRO CP media (Bioreclamation, LLC) and allowed 5 hours to attach. Media was replaced with InVitroGRO HI media and cells were treated with siRNA-IV at 125 nM [siRNA] for 1 hour. Media was replaced with InVitroGRO HI media and cells were treated for approximately 16 hours with experimental Peptide conjugates at various concentrations to establish a dose-response curve. Peptide conjugates were washed out after 16 hours with InVitroGRO HI media and cells allowed to incubate for an additional 24 hours. Cells were then lysed and mRNA expression of the siRNA target was measured by RT-qPCR (Applied Biosystems Taqman reagents). mRNA silencing activity of each Peptide conjugate was expressed as an enhancement above the baseline activity of 125 nM siRNA-IV alone with respect to the untreated cells and all siRNA target Ct values were normalized to PPIB mRNA for each well (dddCt) and summarized.
The structure of TGN-S-S-peptide is shown below and the activity data is listed in Table 5 (siRNA-IV concentration was kept at […]).

## TGN-S-S-SEQ ID NO: 1633(D) ([dC]G[dL][dF]G[dE][dI][dH][dH][dL][dI][dH][dH]G[dL][dE][dN][dL][dI][dD][dW][dW][dN]G; not fully specified (residue 1); also: TGN attached via disulfide; listed as Homo sapiens)
Targeted peptide dose 125 nM
  In vitro dddCt (vs. baseline SCE dose): −0.39
Targeted peptide dose 625 nM
  In vitro dddCt (vs. baseline SCE dose): −0.57
Targeted peptide dose 3125 nM
  In vitro dddCt (vs. baseline SCE dose): −0.37
Targeted peptide dose 15625 nM
  In vitro dddCt (vs. baseline SCE dose): −0.69

## TGN-S-S-SEQ ID NO: 1654 (D)) ([dC]G[dL][dL][dE][dE][dI][dE][dE][dL][dL][dE][dE]G[dL][dE][dN][dL][dI][dD][dW]G[dN][dS]; not fully specified (residue 1); also: TGN attached via disulfide; listed as Homo sapiens)
Targeted peptide dose 125 nM
  In vitro dddCt (vs. baseline SCE dose): −1.05

## TGN-S-S-SEQ ID NO: 1717 (L) (C(TGN)FLGALFHALSHLLENLIDWWNG; reading uncertain; also: TGN disulfide conjugate at Cys1; listed as Homo sapiens)
Targeted peptide dose 25 nM
  In vitro dddCt (vs. baseline SCE dose): 0.61
Targeted peptide dose 625 nM
  In vitro dddCt (vs. baseline SCE dose): 0.37
Targeted peptide dose 3125 nM
  In vitro dddCt (vs. baseline SCE dose): 0.15

## TGN-S-S-SEQ ID NO: 1738 (D) (G[dL][dF]G[dE][dI][dE][dE][dL][dI][dE][dE]G[dL][dE][dN][dL][dI][dD][dW]G[dN]G[dL][dA][dE][dL][dA][dE][dA][dL][dE][dA][dL][dA][dA]GG[dS][dC]; not fully specified (residue 40); also: disulfide to TGN peptide via Cys40; listed as Homo sapiens)
Targeted peptide dose 8 nM
  In vitro dddCt (vs. baseline SCE dose): −0.24
Targeted peptide dose 40 nM
  In vitro dddCt (vs. baseline SCE dose): −0.67
Targeted peptide dose 200 nM
  In vitro dddCt (vs. baseline SCE dose): −1.57
Targeted peptide dose 1000 nM
  In vitro dddCt (vs. baseline SCE dose): −1.69
Targeted peptide dose 5000 nM
  In vitro dddCt (vs. baseline SCE dose): −2.19

## TGN-S-S-SEQ ID NO: 1740(D) (G[dL][dF][dE][dA][dI][dE]G[dF][dI][dE][dN]G[dW][dE]G[dL][dA][dE][dL][dA][dE][dA][dL][dE][dA][dL][dA][dA]GG[dS][dC]; not fully specified (residue 33); also: disulfide to TGN peptide via Cys33; listed as Homo sapiens)
Targeted peptide dose 8 nM
  In vitro dddCt (vs. baseline SCE dose): −0.19
Targeted peptide dose 40 nM
  In vitro dddCt (vs. baseline SCE dose): −0.46
Targeted peptide dose 200 nM
  In vitro dddCt (vs. baseline SCE dose): −1.29
Targeted peptide dose 1000 nM
  In vitro dddCt (vs. baseline SCE dose): −2.3
Targeted peptide dose 5000 nM
  In vitro dddCt (vs. baseline SCE dose): −2.98

## TGN-S-S-SEQ ID NO: 1741 (L) (GLFGALAEALAEALAEHLAEALAEALEALAAGGSC(TGN); reading uncertain; also: TGN linked to Cys via disulfide, TGN not defined; listed as Homo sapiens)
Targeted peptide dose 8 nM
  In vitro dddCt (vs. baseline SCE dose): 0.03
Targeted peptide dose 24 nM
  In vitro dddCt (vs. baseline SCE dose): 0
Targeted peptide dose 40 nM
  In vitro dddCt (vs. baseline SCE dose): −0.11
Targeted peptide dose 120 nM
  In vitro dddCt (vs. baseline SCE dose): 0.02
Targeted peptide dose 200 nM
  In vitro dddCt (vs. baseline SCE dose): −0.25
Targeted peptide dose 600 nM
  In vitro dddCt (vs. baseline SCE dose): −0.08
Targeted peptide dose 1000 nM
  In vitro dddCt (vs. baseline SCE dose): 0.98
Targeted peptide dose 3000 nM
  In vitro dddCt (vs. baseline SCE dose): −0.4
Targeted peptide dose 5000 nM
  In vitro dddCt (vs. baseline SCE dose): −0.58
Targeted peptide dose 15000 nM
  In vitro dddCt (vs. baseline SCE dose): −0.25

## TGN-S-S-SEQ ID NO: 1747 (D) ([dC]G[dL][dF]G[dE][dI][dE][dE][dL][dL][dE][dE]G[dL][dE][dN][dL][dI][dD][dW]G[dN]G; not fully specified (residue 1); also: disulfide to TGN peptide via Cys1; listed as Homo sapiens)
Targeted peptide dose 8 nM
  In vitro dddCt (vs. baseline SCE dose): −0.23
Targeted peptide dose 40 nM
  In vitro dddCt (vs. baseline SCE dose): −0.7
Targeted peptide dose 200 nM
  In vitro dddCt (vs. baseline SCE dose): −1.53
Targeted peptide dose 1000 nM
  In vitro dddCt (vs. baseline SCE dose): −2.08
Targeted peptide dose 5000 nM
  In vitro dddCt (vs. baseline SCE dose): −1.98

## TGN-S-S-SEQ ID NO: 1748 (D) ([dC]G[dL][dF]G[dE][dI][dE][dE][dL][dI][dE][dE][dA][dL][dE][dN][dL][dI][dD][dW]G[dN]G; not fully specified (residue 1); also: disulfide to TGN peptide via Cys1; listed as Homo sapiens)
Targeted peptide dose 8 nM
  In vitro dddCt (vs. baseline SCE dose): −0.2
Targeted peptide dose 40 nM
  In vitro dddCt (vs. baseline SCE dose): −0.5
Targeted peptide dose 200 nM
  In vitro dddCt (vs. baseline SCE dose): −1.38
Targeted peptide dose 1000 nM
  In vitro dddCt (vs. baseline SCE dose): −1.92
Targeted peptide dose 5000 nM
  In vitro dddCt (vs. baseline SCE dose): −2.01

## TGN-S-S-SEQ ID NO: 1749 (D) ([dC]G[dL][dF]G[dE][dI][dE][dE][dL][dI][dE][dE]G[dF][dE][dN][dL][dI][dD][dW]G[dN]G; not fully specified (residue 1); also: disulfide to TGN peptide via Cys1; listed as Homo sapiens)
Targeted peptide dose 8 nM
  In vitro dddCt (vs. baseline SCE dose): 0.02
Targeted peptide dose 40 nM
  In vitro dddCt (vs. baseline SCE dose): −0.04
Targeted peptide dose 200 nM
  In vitro dddCt (vs. baseline SCE dose): −0.26
Targeted peptide dose 1000 nM
  In vitro dddCt (vs. baseline SCE dose): −0.22
Targeted peptide dose 5000 nM
  In vitro dddCt (vs. baseline SCE dose): −0.11

## TGN-S-S-SEQ ID NO: 1751 (D) ([dC]G[dL][dF]G[dE][dI][dE][dE][dL][dI][dE][dE]G[dW][dE][dN][dL][dI][dD][dW]G[dN]G; not fully specified (residue 1); also: disulfide to TGN peptide via Cys1; listed as Homo sapiens)
Targeted peptide dose 8 nM
  In vitro dddCt (vs. baseline SCE dose): −0.1
Targeted peptide dose 40 nM
  In vitro dddCt (vs. baseline SCE dose): −0.12
Targeted peptide dose 200 nM
  In vitro dddCt (vs. baseline SCE dose): 0.09
Targeted peptide dose 1000 nM
  In vitro dddCt (vs. baseline SCE dose): −0.05
Targeted peptide dose 5000 nM
  In vitro dddCt (vs. baseline SCE dose): 0.01

## TGN-S-S-SEQ ID NO: 1752 (D) ([dC]G[dL][dF]G[dE][dI][dE][dE][dW][dI][dE][dE]G[dL][dE][dN][dL][dI][dD][dW]G[dN]G; not fully specified (residue 1); also: disulfide to TGN peptide via Cys1; listed as Homo sapiens)
Targeted peptide dose 8 nM
  In vitro dddCt (vs. baseline SCE dose): −0.25
Targeted peptide dose 40 nM
  In vitro dddCt (vs. baseline SCE dose): −0.48
Targeted peptide dose 200 nM
  In vitro dddCt (vs. baseline SCE dose): −0.89
Targeted peptide dose 1000 nM
  In vitro dddCt (vs. baseline SCE dose): −0.95
Targeted peptide dose 5000 nM
  In vitro dddCt (vs. baseline SCE dose): −1.02

## TGN-S-S-SEQ ID NO: 1753 (D) ([dC]G[dL][dF]G[dE][dI][dE][dE][dF][dI][dE][dE]G[dL][dE][dN][dL][dI][dD][dW]G[dN]G; not fully specified (residue 1); also: disulfide to TGN peptide via Cys1; listed as Homo sapiens)
Targeted peptide dose 8 nM
  In vitro dddCt (vs. baseline SCE dose): 0.15
Targeted peptide dose 40 nM
  In vitro dddCt (vs. baseline SCE dose): 0.05
Targeted peptide dose 200 nM
  In vitro dddCt (vs. baseline SCE dose): −0.2
Targeted peptide dose 1000 nM
  In vitro dddCt (vs. baseline SCE dose): −0.18
Targeted peptide dose 5000 nM
  In vitro dddCt (vs. baseline SCE dose): −0.16

## TGN-S-S-SEQ ID NO: 1755 (D) ([dC]G[dL][dF]G[dE][dI][dE][dE][dL][dF][dE][dE]G[dL][dE][dN][dL][dI][dD][dW]G[dN]G; not fully specified (residue 1); also: disulfide to TGN peptide via Cys1; listed as Homo sapiens)
Targeted peptide dose 8 nM
  In vitro dddCt (vs. baseline SCE dose): −0.01
Targeted peptide dose 40 nM
  In vitro dddCt (vs. baseline SCE dose): −0.24
Targeted peptide dose 200 nM
  In vitro dddCt (vs. baseline SCE dose): −0.38
Targeted peptide dose 1000 nM
  In vitro dddCt (vs. baseline SCE dose): −0.49
Targeted peptide dose 5000 nM
  In vitro dddCt (vs. baseline SCE dose): −0.24

## TGN-S-S-SEQ ID NO: 1758 (D) ([dC]G[dL][dF]G[dE][dI][dE][dE][dL][dI][dE][dE]G[dL][dE][dE][dL][dI][dD][dW]G[dN]G; not fully specified (residue 1); also: disulfide to TGN peptide via Cys1; listed as Homo sapiens)
Targeted peptide dose 8 nM
  In vitro dddCt (vs. baseline SCE dose): 0.04
Targeted peptide dose 40 nM
  In vitro dddCt (vs. baseline SCE dose): −0.02
Targeted peptide dose 200 nM
  In vitro dddCt (vs. baseline SCE dose): −0.38
Targeted peptide dose 1000 nM
  In vitro dddCt (vs. baseline SCE dose): −0.77
Targeted peptide dose 5000 nM
  In vitro dddCt (vs. baseline SCE dose): −0.64

## TGN-S-S-SEQ ID NO: 1759 (D) ([dC]G[dL][dF]G[dE][dI][dE][dE][dL][dI][dE][dE]G[dL][dE][dS][dL][dI][dD][dW]G[dN]G; not fully specified (residue 1); also: disulfide to TGN peptide via Cys1; listed as Homo sapiens)
Targeted peptide dose 8 nM
  In vitro dddCt (vs. baseline SCE dose): −0.15
Targeted peptide dose 40 nM
  In vitro dddCt (vs. baseline SCE dose): −0.87
Targeted peptide dose 200 nM
  In vitro dddCt (vs. baseline SCE dose): −1.65
Targeted peptide dose 1000 nM
  In vitro dddCt (vs. baseline SCE dose): −1.66

## TGN-S-S-SEQ ID NO: 1760 (D) ([dC]G[dL][dF]G[dE][dI][dE][dE][dL][dI][dE][dE]G[dL][dE][dQ][dL][dI][dD][dW]G[dN]G; not fully specified (residue 1); also: disulfide to TGN peptide via Cys1; listed as Homo sapiens)
Targeted peptide dose 8 nM
  In vitro dddCt (vs. baseline SCE dose): −0.09
Targeted peptide dose 40 nM
  In vitro dddCt (vs. baseline SCE dose): −1.01
Targeted peptide dose 200 nM
  In vitro dddCt (vs. baseline SCE dose): −1.6
Targeted peptide dose 1000 nM
  In vitro dddCt (vs. baseline SCE dose): −1.8
Targeted peptide dose 5000 nM
  In vitro dddCt (vs. baseline SCE dose): −1.46
